# Experimental data as given in patent US20030232851A1, “Viral treatment” (The Procter & Gamble Company, priority 1999, published 2003).
# Where “and” joins values, the source holds several entries; their conditions need not be identical. Equal entries are not always repeated.
# Experiments:
# HIV-1 protease = target: T1, HIV-1 protease (Human immunodeficiency virus type 1 group M subtype B, UniProt P04585); experiment: Protease inhibition assay (fluorometric); assay type: biochemical; conditions: for Protease Inhibition, sample reading: sample 1, sample 2
# T1 construct: precludes use of the fluorometric HIV-1 protease assay; purchased Bachem
# Description: Protease inhibition is evaluated using a fluorometric method. Enzyme (Bachem) is diluted to 116 μgm/ml in 50 mM NaOAC, 5 mM DTT, 2 mM EDTA, 10% glycerol (pH 5.0) and stored as 10 μl samples at −20° C., HIV protease substrates I (Molecular Probes) is diluted to a working concentration of 0.32 nmoles/μl. Enzyme (20 μl) and drug (20 μl) are added to each well of a microtiter plate as appropriate. Positive and negative controls are evaluated in parallel. Fluorescence is quantitated on Labsystems Fluroskan II using 355 nm/460 nm at 37° C. at time zero and at 30 minute intervals for 2 hours. In instances where autofluorescence precludes use of the fluorometric HIV-1 protease assay or confirmation of a result is required, an HPLC based protease assay can be employed.
# CEMROD = CEMROD screening: toxicity values (XTT); assay type: cell-based, human; parameters: Toxicity Values, samples 1-3 / Toxicity Values, average: unit not given here
# Description: After 6 days (or the experimental period) of incubation at 37° C. in a 5% carbon dioxide incubator the test plates are analyzed by staining with the tetrazolium dye XTT. […] On day 6 post-infection plates are removed from the incubator and observed. […] The results of the macroscopic observations were confirmed and enhanced by further microscopic analysis.
# Phenazine methosulfate (PMS) solution is prepared at 15 mg/ml in PBS and stored in the dark at −20° C. […] Fifty microliters of XTT/PMS is added to each well of the plate and the plate is reincubated or 4 hours at 37° C. […] Percent cell reduction, percent cell viability, IC25,50, & 95 and TC25,50, & 95 can then be calculated.
# HIV-1 cell line, CEMSKI = experiment: Long term in vitro study, CEMSKI, reverse transcriptase; assay type: cell-based; conditions: run through 242 days
# Description: A microtiter-based reveres transcriptase (RT) reaction is utilized (Buckheit et al (1991) AIDS Research and Human Retroviruses 7:295-302). Tritiated thymidine triphosphate (NEN)(TTP) is resuspended in distilled water at 5 Ci/ml. Poly rA and oligo dT are prepared as a stock solution which is kept at −20° C. The RT reaction buffer is prepared fresh on a daily basis and consists of 125 μl 1M EGTA, 125 μl water, 125 μl Triton X-100, 50 μl Tris (pH 7.4), 50 μl 1 MDDT, and 40 μl 1M MgCl2. These three solutions are mixed together in a ratio of 1 part TTP, 2.5 parts poly rA:oligo dT, 2.5 parts reaction buffer and 4 parts distilled water. Ten microliters of this reaction mixture is placed in a round bottom microtiter place and 15 μl of virus containing supernatant is added and mixed. The plate is incubated at 37° C. for 60 minutes. […] Incorporated radioactivity is quantified utilizing a Wallac Microbeta scintillation counter. […]
# The cell populations contain integrated copies of the HIV genome and constitutively produce HIV at relatively high levels or are latently infected and only produce virus after stimulation with phorbol esters, tumor necrosis factor or IL6 (U1 and ACH2). Reductions in virus products were observed when quantifying supernatant reverse transcriptase activity, […]
# vero cells = experiment: Herpes simplex testing: toxicity (TC50); parameters: unit not given beside the values
# [1] = Table 2 duplicate study, 0.32 μg/ml
# [2] = Table 2 duplicate study, 1 μg/ml
# [3] = Table 2 duplicate study, 1.0 μg/ml
# [4] = Table 2 duplicate study, 3.2 μg/ml
# [5] = Table 2 duplicate study, 32 μg/ml
# [6] = Table 2 duplicate study, 100 μg/ml
smiles,measurement,setting,value
"c1csc(-c2nc3cccnc3[nH]2)c1 [2-(2-thienyl)-imidazolo [4,5-b]pyridine]","Protease Inhibition, mean",HIV-1 protease; 1 nM,24.7
same,"Protease Inhibition, sample reading",HIV-1 protease; 1 nM,27.1 and 22.4
same,"Protease Inhibition, mean",HIV-1 protease; 10 nM,36.7
same,"Protease Inhibition, sample reading",HIV-1 protease; 10 nM,33.2 and 40.2
same,"Protease Inhibition, mean",HIV-1 protease; 100 nM,76.1
same,"Protease Inhibition, sample reading",HIV-1 protease; 100 nM,75.4 and 76.8
same,"Protease Inhibition, mean",HIV-1 protease; 1000 nM,213.8
same,"Protease Inhibition, sample reading",HIV-1 protease; 1000 nM,219.4 and 208.2
same,"Toxicity Values, % cell control","CEMROD; Table 1, 0.32 μg/ml",102%
same,"Toxicity Values, average","CEMROD; Table 1, 0.32 μg/ml",1.144
same,"Toxicity Values, % cell control","CEMROD; Table 1, 1 μg/ml",100.1%
same,"Toxicity Values, average","CEMROD; Table 1, 1 μg/ml",1.122
same,"Toxicity Values, % cell control","CEMROD; Table 1, 1.0 μg/ml",81.3%
same,"Toxicity Values, average","CEMROD; Table 1, 1.0 μg/ml",0.912
same,"Toxicity Values, % cell control","CEMROD; Table 1, 3.2 μg/ml",94.1%
same,"Toxicity Values, average","CEMROD; Table 1, 3.2 μg/ml",1.055
same,"Toxicity Values, % cell control","CEMROD; Table 1, 32 μg/ml",28.7%
same,"Toxicity Values, average","CEMROD; Table 1, 32 μg/ml",0.322
same,"Toxicity Values, % cell control","CEMROD; Table 1, 100 μg/ml",7.6%
same,"Toxicity Values, average","CEMROD; Table 1, 100 μg/ml",0.086
same,"Toxicity Values, % cell control",CEMROD; [1],114.7%
same,"Toxicity Values, average",CEMROD; [1],1.088
same,"Toxicity Values, samples 1-3",CEMROD; [1],1.189 and 1.074 and 1.000
same,"Toxicity Values, % cell control",CEMROD; [2],108.4%
same,"Toxicity Values, average",CEMROD; [2],1.028
same,"Toxicity Values, samples 1-3",CEMROD; [2],1.066 and 1.038 and 0.980
same,"Toxicity Values, % cell control",CEMROD; [3],72.2%
same,"Toxicity Values, average",CEMROD; [3],0.684
same,"Toxicity Values, samples 1-3",CEMROD; [3],0.694 and 0.726 and 0.633
same,"Toxicity Values, % cell control",CEMROD; [4],98.9%
same,"Toxicity Values, average",CEMROD; [4],0.938
same,"Toxicity Values, samples 1-3",CEMROD; [4],1.008 and 0.924 and 0.881
same,"Toxicity Values, % cell control",CEMROD; [5],17.4%
same,"Toxicity Values, average",CEMROD; [5],0.165
same,"Toxicity Values, samples 1-3",CEMROD; [5],0.183 and 0.168 and 0.145
same,"Toxicity Values, % cell control",CEMROD; [6],13.5%
same,"Toxicity Values, average",CEMROD; [6],0.128
same,"Toxicity Values, samples 1-3",CEMROD; [6],0.121 and 0.133 and 0.130
same,toxicity (in words),CEMROD; at the higher concentrations,not toxic
same,reverse transcriptase data on continuation (in words),"HIV-1 cell line, CEMSKI",data remained consistent
same,TC50,vero cells,82.8
